Measurements from US10478421B1, “Sortilin binding compounds, formulations, and uses thereof” (University of Florida, priority 2016, dated 2019).
Residues, ends and D or L forms follow the SMILES beside them.

Biological target: T1, hsortilin (Homo sapiens, UniProt Q99523)
T1 construct: Human sortilin (hsortilin) (Ser78-Asn755) with C-terminal 6-His tag; purchased R&D Systems, Inc. (Minneapolis, Minn.)
T1 sequence (Q99523 78-755): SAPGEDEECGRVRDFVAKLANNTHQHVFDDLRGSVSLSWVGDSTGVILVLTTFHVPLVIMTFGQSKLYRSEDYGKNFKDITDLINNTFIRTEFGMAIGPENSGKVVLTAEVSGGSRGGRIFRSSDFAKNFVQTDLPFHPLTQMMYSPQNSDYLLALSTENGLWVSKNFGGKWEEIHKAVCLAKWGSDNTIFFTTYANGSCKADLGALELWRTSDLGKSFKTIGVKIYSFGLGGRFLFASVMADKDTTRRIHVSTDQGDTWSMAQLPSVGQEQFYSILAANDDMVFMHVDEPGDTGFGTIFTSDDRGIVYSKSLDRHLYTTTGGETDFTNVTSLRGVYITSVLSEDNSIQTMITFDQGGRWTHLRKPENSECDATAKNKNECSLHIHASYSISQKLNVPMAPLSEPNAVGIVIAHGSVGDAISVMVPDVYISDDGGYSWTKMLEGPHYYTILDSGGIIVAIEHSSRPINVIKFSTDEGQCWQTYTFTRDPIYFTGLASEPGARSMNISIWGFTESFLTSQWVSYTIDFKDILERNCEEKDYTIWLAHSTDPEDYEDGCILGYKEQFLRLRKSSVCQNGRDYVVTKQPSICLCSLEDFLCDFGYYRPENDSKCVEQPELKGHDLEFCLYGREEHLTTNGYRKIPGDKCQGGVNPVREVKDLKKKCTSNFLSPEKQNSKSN
Assay: Surface plasmon resonance on hsortilin immobilized on CM7 chips (Example 2)
Format: binding
Method: Surface plasmon resonance (SPR) measurements were performed on a Biacore T200 instrument equipped with two separate CM7 sensor chips, one with about 20,000 response units (RU) and another with about 27,000 RU of hsortilin covalently immobilized. […] For all other SPR injections, regeneration consisted of injections of running buffer alone. GE BIAcore T200 evaluation software version 3.0 (BIAevaluate) was used to analyze and export results. […] PIP3 containing nanodiscs were flowed at 2:1 dilutions to obtain kinetic data fitted using about 27,000 RU CM7 surface. Kinetic fit generated with BIAevaluate and local Rmax using Langmuir 1:1 binding model exported from BIAevaluate to Microsoft Excel 2016 with fit indicated by the black line.

Structure (SMILES) | IC50 (100 nM NT, read-out: IC50 for inhibition of full length NT binding to sortilin) | Kd (C-term NT alone, steady state)
CCCC(=O)OC[C@H](COP(=O)(O)O[C@H]1[C@H](O)[C@@H](OP(=O)(O)O)[C@H](OP(=O)(O)O)[C@@H](OP(=O)(O)O)[C@H]1O)OC(=O)CCC [diC4-PIP3, dibutanoyl PIP3, reference compound] | ~0.75 µM | –
CC[C@H](C)[C@H](NC(=O)[C@H](Cc1ccc(O)cc1)NC(=O)[C@@H]1CCCN1)C(=O)N[C@@H](CC(C)C)C(=O)O [C-term NT, P—Y-I-L, reference compound] (H-PYIL-OH; N-terminus and C-terminus assumed) | – | 0.138 µM
